Columns and labels:
[1] = system: H2O2-induced neuroblastoma SH-SY5Y cells; experiment: Neuroprotection assay against H2O2-induced oxidative stress (WST-8); assay type: cell-based, Human; conditions: Homo sapiens, SH-SY5Y; 30 µg/mL; 12 h pre-treatment, 1 h H2O2 100 µM; read-out: % cell viability, H2O2-induced SH-SY5Y
Description: (§1) Human neuroblastoma SH-SY5Y cells (ATCC CRL-2266, Manassas, VA, USA) were maintained in Dulbecco’s modified Eagle’s medium (DMEM, Gibco) supplemented with 10% fetal bovine serum (FBS), 1% kanamycin, and 1% penicillin (Thermo Fisher Scientific, Waltham, MA, USA) at 37 °C with 5% CO2, and a 95% humidified atmosphere in the incubator. The experiments were executed at 80–90% cell confluency.
The neuroprotective effect of extracts and phytocompounds on H2O2-induced oxidative stress in SH-SY5Y by a previously described method. The cells (1 × 10^4 cells/well) were seeded in a 96-well sterile plate. After stabilization, the cells were pre-treated with the extracts and phytocompounds for 24 h. The extracts and phytocompounds were removed and treated with H2O2 (100 μM) for 6 h. A solvent control, H2O2 alone, and extract alone treatments were also included. After incubation, the % cell viability was measured using WST-8 reagent in triplicate experiments.

[2] = system: AChE (bovine erythrocyte); design: method as in doi:10.1021/jf960398b; conditions: cited from earlier work
[3] = system: SH-SY5Y neuroblastoma cell line; experiment: Cell viability / cytotoxicity assay (WST-8); assay type: cell-based, Human
Description: as §1
The cells were seeded (1 × 10^4 cells/well) in 96-well sterile plates and pre-treated with various extract concentrations (1, 10, 30 µg/mL) for 24 h. The extracts and phytocompounds were removed and incubated for 2 h with 10% WST-8 reagent (Roche, Grenzach-Wyhlen, Germany) as described previously. The absorbance was determined at 450 nm in a multi-plate reader (Synergy-H1 BioTek, Agilent, USA). The percent cytotoxicity was calculated as:Cytotoxicity % = (Ac − At)/(Ac) × 100 where Ac = absorbance of the control cells, At = absorbance of the treated cells.
The plot of percent cytotoxicity versus sample concentration was used to calculate the extract concentration that killed 50% of the cells (IC50).

C=C(C)[C@H]1CC=C(C)C(=O)C1 [carvone, D-carvone]
viability at 30 µg/mL [1]: 70.5 ± 1.67% | AChE IC50 [2]: 277.9 µg/mL | IC50 [2]: 1.85 mM | type of AChE inhibition [2]: competitive inhibitor | Cytotoxicity (cell viability) in SH-SY5Y [3]: No significant difference

Source: publication PMC11241255 (International Journal of Molecular Sciences, 2024)
